Results as given in ChEMBL document CHEMBL5291721, “A preclinical secondary pharmacology resource illuminates target-adverse drug reaction associations of marketed drugs” (Nat Commun, 2023).

Legend:
[1] = biological target: Histamine H1 receptor (Homo sapiens, UniProt P35367)
[2] = biological target: 3',5'-cyclic-AMP phosphodiesterase 4D (Homo sapiens, UniProt Q08499); type: functional
[3] = biological target: Gamma-aminobutyric acid receptor subunit alpha-1/alpha-2/beta-2/gamma-2 (Homo sapiens, UniProt P14867+P18507+P47869+P47870); type: protein-complex assay
[4] = biological target: T1, Adenosine receptor A3 (Homo sapiens, UniProt P0DMS8)
T1 sequence (P0DMS8 whole entry): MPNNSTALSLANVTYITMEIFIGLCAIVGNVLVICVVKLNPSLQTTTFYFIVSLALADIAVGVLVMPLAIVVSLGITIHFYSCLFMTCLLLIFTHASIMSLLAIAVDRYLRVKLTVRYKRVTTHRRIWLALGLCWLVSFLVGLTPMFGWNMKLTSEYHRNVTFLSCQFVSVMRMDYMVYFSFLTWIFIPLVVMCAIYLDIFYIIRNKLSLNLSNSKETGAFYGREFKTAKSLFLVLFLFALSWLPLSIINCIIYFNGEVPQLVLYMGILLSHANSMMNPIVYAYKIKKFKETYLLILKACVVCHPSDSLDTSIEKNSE

[5] = biological target: Sodium-dependent noradrenaline transporter (Homo sapiens, UniProt P23975)
[6] = biological target: Vascular endothelial growth factor receptor 2 (Homo sapiens, UniProt P35968); type: functional
[7] = biological target: T2, Alpha-2C adrenergic receptor (Homo sapiens, UniProt P18825); type: functional
T2 sequence (P18825 whole entry): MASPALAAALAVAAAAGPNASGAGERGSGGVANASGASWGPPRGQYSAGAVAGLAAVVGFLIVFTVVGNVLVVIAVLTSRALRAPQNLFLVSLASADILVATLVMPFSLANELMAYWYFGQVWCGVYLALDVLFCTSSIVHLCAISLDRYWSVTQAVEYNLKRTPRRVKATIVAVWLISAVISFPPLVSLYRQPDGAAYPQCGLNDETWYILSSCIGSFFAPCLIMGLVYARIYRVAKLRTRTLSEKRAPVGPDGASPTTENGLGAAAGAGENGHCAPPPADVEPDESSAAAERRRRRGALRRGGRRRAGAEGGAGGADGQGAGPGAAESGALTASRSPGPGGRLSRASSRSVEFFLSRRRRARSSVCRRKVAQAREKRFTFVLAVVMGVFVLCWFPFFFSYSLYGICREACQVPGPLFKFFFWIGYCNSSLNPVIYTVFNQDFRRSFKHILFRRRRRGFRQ

[8] = biological target: T3, Androgen receptor (Homo sapiens, UniProt P10275)
T3 sequence (P10275 whole entry): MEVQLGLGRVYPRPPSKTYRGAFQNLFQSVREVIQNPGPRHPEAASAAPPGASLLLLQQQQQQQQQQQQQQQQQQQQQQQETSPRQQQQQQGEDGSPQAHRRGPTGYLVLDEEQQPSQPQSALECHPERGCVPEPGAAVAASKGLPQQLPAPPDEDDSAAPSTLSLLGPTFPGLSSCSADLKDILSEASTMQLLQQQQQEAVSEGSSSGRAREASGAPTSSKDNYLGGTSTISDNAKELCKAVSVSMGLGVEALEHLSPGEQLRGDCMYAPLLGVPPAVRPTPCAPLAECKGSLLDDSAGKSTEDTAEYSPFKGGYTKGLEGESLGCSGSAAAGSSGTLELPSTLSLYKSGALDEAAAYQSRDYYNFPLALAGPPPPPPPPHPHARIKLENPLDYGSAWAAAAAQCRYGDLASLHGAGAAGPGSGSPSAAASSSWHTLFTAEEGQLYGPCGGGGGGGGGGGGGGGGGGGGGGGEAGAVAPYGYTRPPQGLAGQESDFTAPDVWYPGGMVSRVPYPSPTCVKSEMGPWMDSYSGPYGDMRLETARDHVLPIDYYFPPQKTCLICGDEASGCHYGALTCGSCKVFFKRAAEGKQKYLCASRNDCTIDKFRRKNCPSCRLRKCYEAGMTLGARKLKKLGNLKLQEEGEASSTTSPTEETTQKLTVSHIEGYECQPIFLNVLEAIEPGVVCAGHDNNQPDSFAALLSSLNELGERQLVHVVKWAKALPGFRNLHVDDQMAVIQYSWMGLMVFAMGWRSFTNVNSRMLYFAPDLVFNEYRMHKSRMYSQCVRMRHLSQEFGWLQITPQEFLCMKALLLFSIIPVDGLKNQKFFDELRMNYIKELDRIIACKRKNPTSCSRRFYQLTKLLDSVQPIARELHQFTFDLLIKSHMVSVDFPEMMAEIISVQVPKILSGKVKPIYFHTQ

[9] = biological target: Gamma-aminobutyric acid receptor subunit alpha-1 (Rattus norvegicus, UniProt P62813)
[10] = biological target: Cannabinoid receptor 1 (Homo sapiens, UniProt P21554); type: functional, cell-based
[11] = biological target: T4, Alpha-2B adrenergic receptor (Homo sapiens, UniProt P18089)
T4 sequence (P18089 whole entry): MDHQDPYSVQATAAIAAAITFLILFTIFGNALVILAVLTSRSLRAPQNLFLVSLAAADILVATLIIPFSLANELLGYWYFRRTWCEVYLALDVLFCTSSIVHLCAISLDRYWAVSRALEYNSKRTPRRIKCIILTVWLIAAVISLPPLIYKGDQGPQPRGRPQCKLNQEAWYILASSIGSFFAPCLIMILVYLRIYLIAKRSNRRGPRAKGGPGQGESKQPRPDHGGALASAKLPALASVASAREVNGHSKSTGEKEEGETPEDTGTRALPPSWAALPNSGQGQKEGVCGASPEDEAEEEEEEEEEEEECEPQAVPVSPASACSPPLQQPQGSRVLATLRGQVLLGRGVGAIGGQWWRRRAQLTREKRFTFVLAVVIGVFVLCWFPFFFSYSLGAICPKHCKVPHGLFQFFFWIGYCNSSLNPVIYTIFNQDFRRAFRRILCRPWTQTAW

[12] = biological target: Glutamate receptor ionotropic, NMDA 1 (Rattus norvegicus, UniProt P35439)
Further: assay procedure not described here.

Sequence of Histamine H1 receptor (P35367 whole entry): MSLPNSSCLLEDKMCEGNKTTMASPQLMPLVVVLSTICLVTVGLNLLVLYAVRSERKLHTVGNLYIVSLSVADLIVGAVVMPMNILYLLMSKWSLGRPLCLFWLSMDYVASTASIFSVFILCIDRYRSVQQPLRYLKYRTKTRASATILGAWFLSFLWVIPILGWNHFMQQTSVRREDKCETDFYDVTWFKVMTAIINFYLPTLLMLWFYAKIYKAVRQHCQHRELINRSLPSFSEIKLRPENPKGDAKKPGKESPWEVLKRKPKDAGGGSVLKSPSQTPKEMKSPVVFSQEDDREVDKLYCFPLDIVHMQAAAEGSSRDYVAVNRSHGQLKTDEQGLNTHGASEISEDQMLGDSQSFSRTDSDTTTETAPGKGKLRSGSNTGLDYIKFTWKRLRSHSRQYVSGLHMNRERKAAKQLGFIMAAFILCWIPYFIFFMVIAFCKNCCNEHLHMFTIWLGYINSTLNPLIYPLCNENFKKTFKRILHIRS
Sequence of 3',5'-cyclic-AMP phosphodiesterase 4D (Q08499 whole entry): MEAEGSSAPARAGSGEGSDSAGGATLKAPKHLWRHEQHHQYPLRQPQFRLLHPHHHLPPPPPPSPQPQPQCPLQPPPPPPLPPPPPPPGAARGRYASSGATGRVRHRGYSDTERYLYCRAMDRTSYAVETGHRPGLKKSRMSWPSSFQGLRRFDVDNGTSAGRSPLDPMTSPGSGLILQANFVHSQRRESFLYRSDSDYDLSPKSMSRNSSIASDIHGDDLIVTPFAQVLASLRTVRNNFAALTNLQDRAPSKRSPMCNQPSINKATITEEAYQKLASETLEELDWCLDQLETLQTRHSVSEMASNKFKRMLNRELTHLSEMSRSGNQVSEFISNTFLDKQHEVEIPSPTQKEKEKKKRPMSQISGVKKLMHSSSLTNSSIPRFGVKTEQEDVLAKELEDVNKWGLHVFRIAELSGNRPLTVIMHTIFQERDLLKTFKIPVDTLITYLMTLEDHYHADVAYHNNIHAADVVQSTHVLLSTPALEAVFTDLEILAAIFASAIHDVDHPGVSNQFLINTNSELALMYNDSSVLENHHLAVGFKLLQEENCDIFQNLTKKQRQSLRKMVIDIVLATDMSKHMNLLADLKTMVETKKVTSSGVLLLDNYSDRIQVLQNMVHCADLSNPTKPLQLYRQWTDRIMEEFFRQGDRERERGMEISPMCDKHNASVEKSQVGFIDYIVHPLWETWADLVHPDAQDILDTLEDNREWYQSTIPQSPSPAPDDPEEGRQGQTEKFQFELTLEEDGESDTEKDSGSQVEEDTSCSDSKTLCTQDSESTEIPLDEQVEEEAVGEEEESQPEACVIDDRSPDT
Sequence of Gamma-aminobutyric acid receptor subunit alpha-1 (P62813 whole entry): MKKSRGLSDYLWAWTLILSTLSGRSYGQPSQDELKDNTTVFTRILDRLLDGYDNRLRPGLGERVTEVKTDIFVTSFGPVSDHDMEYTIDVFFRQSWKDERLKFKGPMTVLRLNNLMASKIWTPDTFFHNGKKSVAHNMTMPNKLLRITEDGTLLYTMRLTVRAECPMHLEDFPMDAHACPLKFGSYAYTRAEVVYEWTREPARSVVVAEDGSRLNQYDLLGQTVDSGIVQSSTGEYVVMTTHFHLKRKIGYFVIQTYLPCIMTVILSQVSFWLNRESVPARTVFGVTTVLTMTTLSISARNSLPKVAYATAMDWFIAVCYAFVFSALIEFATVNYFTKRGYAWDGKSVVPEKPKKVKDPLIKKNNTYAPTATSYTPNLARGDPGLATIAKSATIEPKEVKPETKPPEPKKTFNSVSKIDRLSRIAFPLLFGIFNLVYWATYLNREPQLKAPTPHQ
Sequence of Vascular endothelial growth factor receptor 2 (P35968 whole entry): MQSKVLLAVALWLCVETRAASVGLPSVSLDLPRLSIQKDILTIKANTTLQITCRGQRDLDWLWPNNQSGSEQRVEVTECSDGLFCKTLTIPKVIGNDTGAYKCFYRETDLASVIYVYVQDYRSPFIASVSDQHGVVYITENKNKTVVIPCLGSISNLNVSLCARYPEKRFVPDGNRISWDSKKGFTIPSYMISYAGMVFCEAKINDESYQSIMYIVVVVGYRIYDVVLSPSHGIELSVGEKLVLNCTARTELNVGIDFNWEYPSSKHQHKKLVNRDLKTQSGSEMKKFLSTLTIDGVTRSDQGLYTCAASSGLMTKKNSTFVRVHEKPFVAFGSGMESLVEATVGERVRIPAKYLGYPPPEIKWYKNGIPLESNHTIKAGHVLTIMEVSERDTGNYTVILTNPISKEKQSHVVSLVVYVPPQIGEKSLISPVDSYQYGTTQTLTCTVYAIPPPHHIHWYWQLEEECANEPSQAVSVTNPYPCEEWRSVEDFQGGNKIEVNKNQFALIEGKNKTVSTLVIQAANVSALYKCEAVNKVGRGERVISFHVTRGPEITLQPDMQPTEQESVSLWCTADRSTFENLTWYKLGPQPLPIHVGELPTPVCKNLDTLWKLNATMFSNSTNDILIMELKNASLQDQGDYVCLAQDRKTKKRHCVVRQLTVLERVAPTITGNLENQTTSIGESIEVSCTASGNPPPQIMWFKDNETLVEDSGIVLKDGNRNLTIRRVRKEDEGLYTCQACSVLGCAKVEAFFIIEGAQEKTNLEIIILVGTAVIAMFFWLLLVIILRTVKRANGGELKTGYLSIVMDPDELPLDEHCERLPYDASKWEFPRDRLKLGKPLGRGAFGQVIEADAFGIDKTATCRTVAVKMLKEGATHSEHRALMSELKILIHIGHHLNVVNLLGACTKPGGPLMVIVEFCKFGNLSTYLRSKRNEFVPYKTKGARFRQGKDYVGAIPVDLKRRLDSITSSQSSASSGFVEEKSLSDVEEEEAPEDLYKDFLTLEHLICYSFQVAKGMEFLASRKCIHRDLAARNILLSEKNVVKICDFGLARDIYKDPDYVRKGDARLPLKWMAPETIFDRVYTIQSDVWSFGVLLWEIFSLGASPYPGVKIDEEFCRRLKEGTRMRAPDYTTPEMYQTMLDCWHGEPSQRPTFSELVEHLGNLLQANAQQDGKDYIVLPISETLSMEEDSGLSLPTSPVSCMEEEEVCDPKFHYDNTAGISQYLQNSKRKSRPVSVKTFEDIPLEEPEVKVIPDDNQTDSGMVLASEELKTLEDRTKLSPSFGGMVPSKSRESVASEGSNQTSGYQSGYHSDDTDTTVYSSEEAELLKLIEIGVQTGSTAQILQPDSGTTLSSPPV
Sequence of Gamma-aminobutyric acid receptor subunit alpha-1/alpha-2/beta-2/gamma-2 (P14867 whole entry): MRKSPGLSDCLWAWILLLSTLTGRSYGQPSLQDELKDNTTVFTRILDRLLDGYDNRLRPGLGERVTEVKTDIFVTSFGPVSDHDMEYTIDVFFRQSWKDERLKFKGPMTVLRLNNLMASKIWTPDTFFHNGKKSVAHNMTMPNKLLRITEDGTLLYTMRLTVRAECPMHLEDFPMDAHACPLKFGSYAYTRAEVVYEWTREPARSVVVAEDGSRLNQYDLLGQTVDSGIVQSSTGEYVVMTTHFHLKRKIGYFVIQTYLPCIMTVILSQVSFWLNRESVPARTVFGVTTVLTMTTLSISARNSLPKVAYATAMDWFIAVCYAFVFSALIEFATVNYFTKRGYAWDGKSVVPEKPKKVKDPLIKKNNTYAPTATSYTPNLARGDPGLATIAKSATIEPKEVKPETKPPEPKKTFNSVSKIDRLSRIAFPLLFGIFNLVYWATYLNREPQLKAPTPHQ
Sequence of Gamma-aminobutyric acid receptor subunit alpha-1/alpha-2/beta-2/gamma-2 (P47870 whole entry): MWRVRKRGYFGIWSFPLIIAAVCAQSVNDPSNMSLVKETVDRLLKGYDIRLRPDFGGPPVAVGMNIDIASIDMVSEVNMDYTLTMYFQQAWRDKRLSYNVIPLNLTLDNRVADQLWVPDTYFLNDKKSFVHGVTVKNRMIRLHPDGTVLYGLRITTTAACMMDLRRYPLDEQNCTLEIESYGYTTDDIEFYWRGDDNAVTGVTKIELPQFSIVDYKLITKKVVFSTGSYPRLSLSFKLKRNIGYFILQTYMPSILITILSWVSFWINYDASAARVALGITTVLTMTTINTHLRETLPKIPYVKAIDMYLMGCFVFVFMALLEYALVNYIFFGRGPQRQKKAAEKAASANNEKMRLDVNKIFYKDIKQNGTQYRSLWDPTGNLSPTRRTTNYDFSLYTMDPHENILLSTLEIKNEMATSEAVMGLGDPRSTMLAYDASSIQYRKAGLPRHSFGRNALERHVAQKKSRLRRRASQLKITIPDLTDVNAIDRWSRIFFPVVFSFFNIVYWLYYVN
Sequence of Gamma-aminobutyric acid receptor subunit alpha-1/alpha-2/beta-2/gamma-2 (P18507 whole entry): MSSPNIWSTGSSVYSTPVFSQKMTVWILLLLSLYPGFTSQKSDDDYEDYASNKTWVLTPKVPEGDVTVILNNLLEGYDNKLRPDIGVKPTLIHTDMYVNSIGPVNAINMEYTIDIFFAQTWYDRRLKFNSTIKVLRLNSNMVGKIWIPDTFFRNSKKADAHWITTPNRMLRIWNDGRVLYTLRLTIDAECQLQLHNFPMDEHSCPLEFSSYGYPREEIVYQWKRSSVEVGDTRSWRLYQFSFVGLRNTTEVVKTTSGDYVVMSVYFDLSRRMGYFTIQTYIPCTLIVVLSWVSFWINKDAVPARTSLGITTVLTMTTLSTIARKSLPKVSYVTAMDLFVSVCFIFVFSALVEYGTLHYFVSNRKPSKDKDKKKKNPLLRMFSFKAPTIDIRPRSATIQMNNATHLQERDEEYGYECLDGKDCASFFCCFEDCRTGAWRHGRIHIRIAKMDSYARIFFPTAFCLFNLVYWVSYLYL
Sequence of Gamma-aminobutyric acid receptor subunit alpha-1/alpha-2/beta-2/gamma-2 (P47869 whole entry): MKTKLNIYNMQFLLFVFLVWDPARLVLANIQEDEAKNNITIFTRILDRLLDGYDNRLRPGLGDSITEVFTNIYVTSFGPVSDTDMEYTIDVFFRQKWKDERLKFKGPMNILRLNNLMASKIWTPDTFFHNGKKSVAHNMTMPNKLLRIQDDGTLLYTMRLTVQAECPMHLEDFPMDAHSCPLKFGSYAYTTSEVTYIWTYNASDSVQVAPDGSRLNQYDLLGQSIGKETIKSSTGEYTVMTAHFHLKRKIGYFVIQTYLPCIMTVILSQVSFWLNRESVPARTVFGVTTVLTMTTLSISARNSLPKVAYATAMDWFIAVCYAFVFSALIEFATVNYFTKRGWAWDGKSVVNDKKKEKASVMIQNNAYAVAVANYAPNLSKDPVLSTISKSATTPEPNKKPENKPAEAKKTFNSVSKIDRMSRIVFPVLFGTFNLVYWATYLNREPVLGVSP

Row | Structure (SMILES) | AC50 [3] [µM] | AC50 [6] [µM] | AC50 [8] [µM] | also measured
1 | O=C(O)c1cccc(-c2noc(-c3ccccc3F)n2)c1 | > 30 | > 30 | – | AC50 [1]: > 10 µM; AC50 [2]: > 30 µM; AC50 [4]: > 30 µM; AC50 [5]: > 30 µM; AC50 [7]: > 10 µM
2 | Cc1c(O)cccc1C(=O)N[C@@H](CSc1ccccc1)[C@H](O)CN1C[C@H]2CCCC[C@H]2C[C@H]1C(=O)NC(C)(C)C | > 30 | > 30 | > 30 | –
3 | CCCC1C(=O)N2C(N(C)C)=Nc3ccc(C)cc3N2C1=O (stereo unspecified) [APAZONE] | > 30 | > 30 | – | –
4 | CCS(=O)(=O)N1CC(CC#N)(n2cc(-c3ncnc4[nH]ccc34)cn2)C1 [BARICITINIB] | – | – | > 30 | –
5 | O=C1CN=C(c2ccccc2)c2c(sc3c2CCCC3)N1 [BENTAZEPAM] | – | > 30 | 1.24 | –
6 | O=C(O)CCCN1CCC(O[C@@H](c2ccc(Cl)cc2)c2ccccn2)CC1 [BEPOTASTINE] | – | > 30 | > 30 | –
7 | CN(Cc1cc(Br)cc(Br)c1N)C1CCCCC1 [BROMHEXINE] | > 30 | > 30 | – | –
8 | CCCC[N+]1(C)[C@@H]2C[C@@H](OC(=O)[C@H](CO)c3ccccc3)C[C@H]1[C@@H]1O[C@@H]12 (stereo partly specified) [BUTYLSCOPOLAMINE] | – | > 30 | > 30 | –
9 | O=C(c1ccc(F)c(F)c1Nc1ccc(I)cc1F)N1CC(O)([C@@H]2CCCCN2)C1 [COBIMETINIB] | – | > 30 | > 30 | –
10 | CN1CCN(C(c2ccccc2)c2ccccc2)CC1 [CYCLIZINE] | > 30 | > 30 | > 30 | –
11 | NS(=O)(=O)c1cc2c(cc1Cl)NC(C1CC3C=CC1C3)NS2(=O)=O (stereo unspecified) [CYCLOTHIAZIDE] | – | > 30 | > 30 | –
12 | Nc1nc(-n2cc(C(=O)O)c(=O)c3cc(F)c(N4CC(O)C4)c(Cl)c32)c(F)cc1F [DELAFLOXACIN] | > 30 | > 30 | > 30 | –
13 | C[C@@H]1C[C@H]2[C@@H]3CCC4=CC(=O)C=C[C@]4(C)[C@@]3(F)[C@@H](O)C[C@]2(C)[C@H]1C(=O)CO [DESOXIMETASONE] | > 30 | > 30 | – | –
14 | COc1ccc(-c2cc(=O)c3c(O)cc(O[C@@H]4O[C@H](CO[C@@H]5O[C@@H](C)[C@H](O)[C@@H](O)[C@H]5O)[C@@H](O)[C@H](O)[C@H]4O)cc3o2)cc1O [DIOSMIN] | > 30 | > 30 | – | –
15 | O=C(Nc1ccccc1)OCC(CN1CCCCC1)OC(=O)Nc1ccccc1 (stereo unspecified) [DIPERODON] | > 30 | > 30 | – | AC50 [9]: > 10 µM; AC50 [1]: > 10 µM; AC50 [2]: > 10 µM; AC50 [4]: > 30 µM; AC50 [10]: > 30 µM; AC50 [11]: > 10 µM; AC50 [12]: > 10 µM; AC50 [5]: 1.1 µM; AC50 [7]: > 10 µM
16 | CCOc1ccc(/C=C2\NCCc3cc(OCC)c(OCC)cc32)cc1OCC [DROTAVERINE] | > 30 | > 30 | > 30 | –
17 | CC1=NN(c2ccccc2)C(=O)C1 [EDARAVONE] | > 30 | > 30 | – | –
18 | N/N=c1/cc2c(n[nH]1)CCN(C(=O)c1ccccc1)C2 [ENDRALAZINE] | – | – | > 30 | AC50 [9]: > 30 µM; AC50 [1]: > 30 µM; AC50 [2]: > 30 µM; AC50 [10]: > 30 µM; AC50 [11]: > 30 µM; AC50 [12]: > 30 µM; AC50 [7]: > 30 µM
19 | CCOC(=O)C(c1c(O)c2ccccc2oc1=O)c1c(O)c2ccccc2oc1=O [ETHYL BISCOUMACETATE] | – | > 30 | > 30 | –

Row | Structure (SMILES) | AC50 [3] [µM] | AC50 [6] [µM] | AC50 [8] [µM] | also measured
20 | Cc1nc(-c2ccc(OCC(C)C)c(C#N)c2)sc1C(=O)O [FEBUXOSTAT] | – | > 30 | > 30 | –
21 | C[C@@H]1C[C@H]2[C@@H]3C[C@H](F)C4=CC(=O)C=C[C@]4(C)[C@@]3(F)[C@@H](O)C[C@]2(C)[C@@]1(O)C(=O)COC(=O)C(C)(C)C [FLUMETHASONE PIVALATE] | > 30 | > 30 | 1.4 | –
22 | C[C@@H]1C[C@H]2[C@@H]3C[C@H](F)C4=CC(=O)C(Cl)=C[C@]4(C)[C@@]3(F)[C@@H](O)C[C@]2(C)[C@@]1(O)C(=O)CO [HALOMETASONE] | – | > 30 | 10.3 | –
23 | CC(C)Cc1ccc(C(C)C(=O)NO)cc1 (stereo unspecified) [IBUPROXAM] | > 30 | > 30 | > 30 | –
24 | CC/C=C\C/C=C\C/C=C\C/C=C\C/C=C\CCCC(=O)O [ICOSAPENT] | > 30 | > 30 | – | –
25 | Oc1c(I)cc(I)c2cccnc12 [IODOQUINOL] | > 30 | > 30 | – | –
26 | O=C(NC1CCN(CCCCC2(C(=O)NCC(F)(F)F)c3ccccc3-c3ccccc32)CC1)c1ccccc1-c1ccc(C(F)(F)F)cc1 [LOMITAPIDE] | – | > 30 | > 30 | –
27 | CCOC(=O)CC(SP(=S)(OC)OC)C(=O)OCC (stereo unspecified) [MALATHION] | – | – | > 30 | –
28 | CN1C(=O)N(C)C2C1N(C)C(=O)N2C (stereo unspecified) [MEBICAR] | – | – | > 30 | AC50 [9]: > 30 µM; AC50 [1]: > 30 µM; AC50 [2]: > 30 µM; AC50 [10]: > 30 µM; AC50 [11]: > 30 µM; AC50 [12]: > 30 µM; AC50 [7]: 14 µM
29 | CC(=O)OC(C)C[N+](C)(C)C (stereo unspecified) [METHACHOLINE] | > 30 | > 30 | – | –
30 | C1N2CN3CN1CN(C2)C3 [METHENAMINE] | – | > 30 | > 30 | –
31 | O=[N+]([O-])c1cncn1CCN1CCOCC1 [NIMORAZOLE] | – | – | > 30 | –
32 | NC(=O)c1cccc2cn(-c3ccc([C@@H]4CCCNC4)cc3)nc12 [NIRAPARIB] | – | – | > 30 | –
33 | COc1ccc2c(c1)OC(C)(C)C(c1ccccc1)C2c1ccc(OCCN2CCCC2)cc1 (stereo unspecified) [ORMELOXIFENE] | > 10 | > 30 | – | –
34 | Oc1cccc2cccnc12 [OXYQUINOLINE] | > 30 | > 30 | – | –
35 | Nc1nc2c(ncn2CCC(CO)CO)c(=O)[nH]1 [PENCICLOVIR] | > 30 | > 30 | – | –
36 | CC[C@@H]1/C=C(\C)C[C@H](C)C[C@H](OC)[C@H]2O[C@@](O)(C(=O)C(=O)N3CCCC[C@H]3C(=O)O[C@H](/C(C)=C/[C@@H]3CC[C@H](Cl)[C@H](OC)C3)[C@H](C)[C@@H](O)CC1=O)[C@H](C)C[C@@H]2OC [PIMECROLIMUS] | > 10 | > 30 | – | –
37 | COc1cc2c(cc1OC)[C@H]1C[C@@H](OC(=O)[C@@H](N)C(C)C)[C@H](CC(C)C)CN1CC2 [VALBENAZINE] | – | – | > 30 | –
